Measured values as given in PMC10006169, “A phase I trial of LXS196, a protein kinase C (PKC) inhibitor, for metastatic uveal melanoma” (British Journal of Cancer, 2023).

Tested on: patients with MUM
Experiment: Adverse events suspected to be study drug related (NCI-CTCAE v4.03)
Assay type: in vivo, human
Description: Routine safety assessments, including laboratory assessments, physical examinations, vital signs and electrocardiograms (ECGs), were conducted at regular intervals throughout the study and more frequently as needed following patient assessment by the treating physician. Adverse events (AEs) were assessed continuously according to the National Cancer Institute Common Terminology Criteria for Adverse Events (NCI-CTCAE) v4.03.

**Q.** What does the source list for `CC1(N)CCN(c2cccnc2NC(=O)c2nc(-c3ncccc3C(F)(F)F)cnc2N)CC1` [LXS196]?
**A.** ALT increased, all grades (100 mg QD): 0 n (%); ALT increased, grade ≥3 (100 mg QD): 0 n (%); AST increased, all grades (100 mg QD): 0 n (%); AST increased, grade ≥3 (100 mg QD): 0 n (%); Asthenia, all grades (100 mg QD): 0 n (%); Asthenia, grade ≥3 (100 mg QD): 0 n (%); Blood creatinine increased, all grades (100 mg QD): 0 n (%); Blood creatinine increased, grade ≥3 (100 mg QD): 0 n (%); Constipation, all grades (100 mg QD): 1 (33.3) n (%); Constipation, grade ≥3 (100 mg QD): 0 n (%); Diarrhoea, all grades (100 mg QD): 1 (33.3) n (%); Diarrhoea, grade ≥3 (100 mg QD): 0 n (%); Dry skin, all grades (100 mg QD): 0 n (%); Dry skin, grade ≥3 (100 mg QD): 0 n (%); Fatigue, all grades (100 mg QD): 0 n (%); Fatigue, grade ≥3 (100 mg QD): 0 n (%); Hypotension, all grades (100 mg QD): 0 n (%); Hypotension, grade ≥3 (100 mg QD): 0 n (%); Nausea, all grades (100 mg QD): 2 (66.7) n (%); Nausea, grade ≥3 (100 mg QD): 0 n (%); Patients with ≥1 AE, all grades (100 mg QD): 2 (66.7) n (%); Patients with ≥1 AE, grade ≥3 (100 mg QD): 0 n (%); Rash, all grades (100 mg QD): 0 n (%); Rash, grade ≥3 (100 mg QD): 0 n (%); Vomiting, all grades (100 mg QD): 0 n (%); Vomiting, grade ≥3 (100 mg QD): 0 n (%); ALT increased, all grades (200 mg QD): 0 n (%); ALT increased, grade ≥3 (200 mg QD): 0 n (%); AST increased, all grades (200 mg QD): 0 n (%); AST increased, grade ≥3 (200 mg QD): 0 n (%); Asthenia, all grades (200 mg QD): 1 (25.0) n (%); Asthenia, grade ≥3 (200 mg QD): 0 n (%); Blood creatinine increased, all grades (200 mg QD): 1 (25.0) n (%); Blood creatinine increased, grade ≥3 (200 mg QD): 0 n (%); Constipation, all grades (200 mg QD): 2 (50.0) n (%); Constipation, grade ≥3 (200 mg QD): 0 n (%); Diarrhoea, all grades (200 mg QD): 1 (25.0) n (%); Diarrhoea, grade ≥3 (200 mg QD): 0 n (%); Dry skin, all grades (200 mg QD): 0 n (%); Dry skin, grade ≥3 (200 mg QD): 0 n (%); Fatigue, all grades (200 mg QD): 0 n (%); Fatigue, grade ≥3 (200 mg QD): 0 n (%); Hypotension, all grades (200 mg QD): 0 n (%); Hypotension, grade ≥3 (200 mg QD): 0 n (%); Nausea, all grades (200 mg QD): 2 (50.0) n (%); Nausea, grade ≥3 (200 mg QD): 1 (25.0) n (%); Patients with ≥1 AE, all grades (200 mg QD): 4 (100) n (%); Patients with ≥1 AE, grade ≥3 (200 mg QD): 2 (50.0) n (%); Rash, all grades (200 mg QD): 0 n (%); Rash, grade ≥3 (200 mg QD): 0 n (%); Vomiting, all grades (200 mg QD): 2 (50.0) n (%); Vomiting, grade ≥3 (200 mg QD): 1 (25.0) n (%); ALT increased, all grades (300 mg BID (RDE)): 5 (27.8) n (%); ALT increased, grade ≥3 (300 mg BID (RDE)): 1 (5.6) n (%); AST increased, all grades (300 mg BID (RDE)): 3 (16.7) n (%); AST increased, grade ≥3 (300 mg BID (RDE)): 1 (5.6) n (%); Asthenia, all grades (300 mg BID (RDE)): 4 (22.2) n (%); Asthenia, grade ≥3 (300 mg BID (RDE)): 0 n (%); Blood creatinine increased, all grades (300 mg BID (RDE)): 2 (11.1) n (%); Blood creatinine increased, grade ≥3 (300 mg BID (RDE)): 0 n (%); Constipation, all grades (300 mg BID (RDE)): 1 (5.6) n (%); Constipation, grade ≥3 (300 mg BID (RDE)): 0 n (%); Diarrhoea, all grades (300 mg BID (RDE)): 11 (61.1) n (%); Diarrhoea, grade ≥3 (300 mg BID (RDE)): 1 (5.6) n (%); Dry skin, all grades (300 mg BID (RDE)): 4 (22.2) n (%); Dry skin, grade ≥3 (300 mg BID (RDE)): 0 n (%); Fatigue, all grades (300 mg BID (RDE)): 3 (16.7) n (%); Fatigue, grade ≥3 (300 mg BID (RDE)): 0 n (%); Hypotension, all grades (300 mg BID (RDE)): 3 (16.7) n (%); Hypotension, grade ≥3 (300 mg BID (RDE)): 0 n (%); Nausea, all grades (300 mg BID (RDE)): 14 (77.8) n (%); Nausea, grade ≥3 (300 mg BID (RDE)): 0 n (%); Patients with ≥1 AE, all grades (300 mg BID (RDE)): 17 (94.4) n (%); Patients with ≥1 AE, grade ≥3 (300 mg BID (RDE)): 2 (11.1) n (%); Rash, all grades (300 mg BID (RDE)): 4 (22.2) n (%); Rash, grade ≥3 (300 mg BID (RDE)): 0 n (%); Vomiting, all grades (300 mg BID (RDE)): 7 (38.9) n (%); Vomiting, grade ≥3 (300 mg BID (RDE)): 0 n (%); ALT increased, all grades (300 mg QD): 3 (20.0) n (%); ALT increased, grade ≥3 (300 mg QD): 1 (6.7) n (%); AST increased, all grades (300 mg QD): 1 (6.7) n (%); AST increased, grade ≥3 (300 mg QD): 1 (6.7) n (%); Asthenia, all grades (300 mg QD): 3 (20.0) n (%); Asthenia, grade ≥3 (300 mg QD): 0 n (%); Blood creatinine increased, all grades (300 mg QD): 1 (6.7) n (%); Blood creatinine increased, grade ≥3 (300 mg QD): 0 n (%); Constipation, all grades (300 mg QD): 1 (6.7) n (%); Constipation, grade ≥3 (300 mg QD): 0 n (%); Diarrhoea, all grades (300 mg QD): 4 (26.7) n (%); Diarrhoea, grade ≥3 (300 mg QD): 0 n (%); Dry skin, all grades (300 mg QD): 1 (6.7) n (%); Dry skin, grade ≥3 (300 mg QD): 0 n (%); Fatigue, all grades (300 mg QD): 7 (46.7) n (%); Fatigue, grade ≥3 (300 mg QD): 0 n (%); Hypotension, all grades (300 mg QD): 1 (6.7) n (%); Hypotension, grade ≥3 (300 mg QD): 0 n (%); Nausea, all grades (300 mg QD): 9 (60.0) n (%)
